Laboratory results published in patent US8168667B2 (Galapagos NV, priority 2006, dated 2012).
Read-outs that look alike come from different tables or passages of the source.

Molecular target: T1, human androgen receptor (hAR) (Homo sapiens, UniProt P10275)
T1 sequence (P10275 1-920): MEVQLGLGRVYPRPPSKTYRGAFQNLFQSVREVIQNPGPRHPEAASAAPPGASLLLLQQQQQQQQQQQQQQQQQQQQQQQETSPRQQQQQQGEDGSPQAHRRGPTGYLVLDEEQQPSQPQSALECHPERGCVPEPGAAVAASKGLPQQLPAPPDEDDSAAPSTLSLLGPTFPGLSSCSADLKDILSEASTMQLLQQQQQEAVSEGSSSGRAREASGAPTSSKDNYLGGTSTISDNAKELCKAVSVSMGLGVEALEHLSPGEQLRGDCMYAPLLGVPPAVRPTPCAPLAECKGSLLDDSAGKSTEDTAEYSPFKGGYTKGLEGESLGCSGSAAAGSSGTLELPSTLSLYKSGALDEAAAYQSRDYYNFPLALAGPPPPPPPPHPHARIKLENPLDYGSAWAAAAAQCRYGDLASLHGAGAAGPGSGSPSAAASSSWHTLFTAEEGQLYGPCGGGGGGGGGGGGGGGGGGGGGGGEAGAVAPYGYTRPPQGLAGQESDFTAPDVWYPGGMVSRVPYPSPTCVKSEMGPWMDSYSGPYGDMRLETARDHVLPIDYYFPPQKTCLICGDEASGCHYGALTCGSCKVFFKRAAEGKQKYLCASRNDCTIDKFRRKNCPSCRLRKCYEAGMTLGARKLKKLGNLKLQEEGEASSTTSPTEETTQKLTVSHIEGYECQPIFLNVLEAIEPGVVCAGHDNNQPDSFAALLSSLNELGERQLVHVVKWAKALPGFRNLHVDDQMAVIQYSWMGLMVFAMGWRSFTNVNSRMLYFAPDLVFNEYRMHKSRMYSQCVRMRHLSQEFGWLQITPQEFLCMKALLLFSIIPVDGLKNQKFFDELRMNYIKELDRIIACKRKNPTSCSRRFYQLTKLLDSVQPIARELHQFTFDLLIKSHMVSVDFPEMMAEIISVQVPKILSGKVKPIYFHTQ
Assay: Functional response test: hAR transactivation (luciferase reporter) in HALP2 cells
Format: cell-based
Details: for EC50: agonism, HALP2 cells (HeLa, hAR + ARE-luciferase), 20 hours at 37° C.
Excerpt: This test constitutes a method of identifying pure or partial agonists which mimic the effects of natural hormones, such as DHT (dihydrotestosterone) in the present case or, on the other hand, antagonists which inhibit them.
For this transactivation test, plasmids encoding a reporter gene and the human androgen receptor (hAR) are introduced together by transfection into the HeLa cell line. The reporter plasmid contains luciferase cDNA under the control of the AREs contained in the promoter sequences of the probasin gene (3xpbAREminicoll-luciferase/pGL3-puro). The expression of the reporter gene constitutes an indication of the transcriptional activity of hAR. It also encodes a protein allowing the cells expressing it to resist a treatment with puromycin. The plasmid encoding hAR contains the cDNA of hAR under the control of the Cytomegalovirus (CMV) promoter. It also encodes a protein allowing the cells expressing it to resist a treatment with neomycin. The treatment of cells with increasing amounts of potentially agonistic compounds will increase the expression of the reporter gene. To detect antagonists, on the other hand, increasing doses of test compounds are tested in the presence of […] of DHT. The expression of the reporter gene, which is constant for each dose of DHT, decreases when the concentration of the test compounds increases.
For this test, HeLa cells were obtained from the American Type Culture Collection (Rockville, Md.) and cultivated in DMEM medium containing 4.5 g/l of glucose, supplemented with Glutamax and with nonessential amino-acids and with 10% of foetal calf serum (SVF; Dominique Dutscher).
On the day before transfection, a million cells were seeded in DMEM medium without phenol red, supplemented with Glutamax and with desteroided SVF (5%) in Petri dishes. The cells were transfected with 4 μg of the puromycin resistance plasmids pcDNA3-hAR and 3xpbAREminicoll-luciferase/pGL3 using the reagent “Lipofectamine plus” (Invitrogen), following the supplier's recommendations. The day after transfection, the cells were seeded to different cell densities (10,000 to 100,000 cellules per Petri dish). Two days after transfection, the transfected cells were selected in DMEM medium without phenol red, supplemented with Glutamax and with desteroided SVF (5%) containing 400 μg/mL of G418 (Invitrogen) and 150 ng/mL of puromycin (Sigma). The culture medium was renewed weekly until resistant clones appeared. The resistant clones were removed and amplified before being tested for their functional response. […]
The functional response test was conducted on 96-well plates. The HALP2 cells were seeded (30,000 cells per well) 24 hours before the phase of stimulation in DMEM medium containing 4.5 g/L of glucose, supplemented with Glutamax and nonessential amino-acids, and with desteroided SVF (5%).
On the day of stimulation, the seeding medium was replaced by DMEM medium without phenol red, supplemented with Glutamax and with desteroided SVF (5%). […] The cells were placed in contact with the compounds for 20 hours at 37° C.

[1] = antagonism, concentration which increases the EC50 of the DHT by a factor of 2, Schild regression, HALP2 cells

SMILES	KSchild (nM) potency [nM]	EC50 [nM]	KSchild (nM) potency [1] [nM]
C=CCN1C(=O)N(c2ccc([N+](=O)[O-])c(C(F)(F)F)c2)C(=O)C1c1ccc(O)cc1 (stereo not drawn) [Example 13, 1-(4-nitro-3-trifluoromethylphenyl)-4-(4-hydroxyphenyl)-3-(2-propenyl)imidazolidine-2,5-dione]	122.47		
CCC(=O)CN1C(=O)N(c2ccc(C#N)c(C(F)(F)F)c2)C(=O)C1(C)c1ccc(O)cc1 (stereo not drawn) [Example 233, 4-[2,5-dioxo-4-(4-hydroxyphenyl)-4-methyl-3-(2-oxobutyl)imidazolidin-1-yl]-2-trifluoromethylbenzonitrile]	2.45		
CN1C(=O)N(c2ccc([N+](=O)[O-])cc2)C(=O)C1c1ccc(O)cc1 (stereo not drawn) [Example 50]	9.9		
CCOC(=O)CCN1C(=O)N(c2ccc(Cl)c(C(F)(F)F)c2)C(=O)C1c1ccc(O)cc1 (stereo not drawn) [Example 77]		122	94.87
CCOC(=O)CCN1C(=O)N(c2ccc(Cl)c(Cl)c2)C(=O)C1c1ccc(O)cc1 (stereo not drawn) [Example 15, Ethyl 3-[1-(3,4-dichlorophenyl)-4-(4-hydroxyphenyl)-2,5-dioxoimidazolidin-3-yl]propionate]		11.3	11.29
CC1(c2ccc(O)cc2)C(=O)N(c2ccc(C#N)c(C(F)(F)F)c2)C(=O)N1CC(N)=O (stereo not drawn) [Example 231, 4-[3-[(aminocarbonyl)methyl]-2,5-dioxo-4-(4-hydroxyphenyl)-4-methylimidazolidin-1-yl]-2-trifluoromethylbenzonitrile]	60		
Cc1cc(Br)ccc1N1C(=O)N(C)C(C)(c2ccc(O)cc2)C1=O (stereo not drawn) [Example 27, 1-(4-bromo-2-methylphenyl)-3,4-dimethyl-4-(4-hydroxyphenyl)imidazolidine-2,5-dione]		13.4	10.63
O=C1C(c2ccc(O)cc2)N(CCCCO)C(=O)N1c1ccc(Cl)c(Cl)c1 (stereo not drawn) [Example 132]		69.3	69.28
CN1C(=O)N(c2ccc(C#N)c(C(F)(F)F)c2)C(=O)C1(C)c1ccc(OCCO)cc1 (stereo not drawn) [Example 343]	60		
O=C1C(c2ccc(O)cc2)N(CCO)C(=O)N1c1ccc(F)c(C(F)(F)F)c1 (stereo not drawn) [Example 142]		141	141.42
N#CCCN1C(=O)N(c2ccc([N+](=O)[O-])c(C(F)(F)F)c2)C(=O)C1c1ccc(O)cc1 (stereo not drawn) [Example 122]	244.95		
CC1(c2ccc(O)cc2)C(=O)N(c2ccc(C#N)c(C(F)(F)F)c2)C(=O)N1CO (stereo not drawn) [Example 228.1, 4-[2,5-dioxo-3-hydroxymethyl-4-(4-hydroxyphenyl)-4-methylimidazolidin-1-yl]-2-trifluoromethylbenzonitrile]	150		
O=C1C(c2ccc(O)cc2)N(CCO)C(=O)N1c1ccc(F)c(F)c1 (stereo not drawn) [Example 140]		490	489.9
Cc1c(N2C(=O)N(C)C(C)(c3ccc(O)cc3)C2=O)ccc(C#N)c1C(F)(F)F (stereo not drawn) [Example 38, 4-[3,4-dimethyl-2,5-dioxo-4-(4-hydroxyphenyl)imidazolidin-1-yl]-3-methyl-2-trifluoromethylbenzonitrile]	3		
CCOC(=O)CCN1C(=O)N(c2cccc(C(F)(F)F)c2)C(=O)C1c1ccc(O)cc1 (stereo not drawn) [Example 80]		80	80
N#Cc1ccc(N2C(=O)C(c3ccc(O)cc3)N(Cc3ccc4c(c3)OCO4)C2=O)cc1C(F)(F)F (stereo not drawn) [Example 97]	28.28		

SMILES	KSchild (nM) potency [nM]	EC50 [nM]	KSchild (nM) potency [1] [nM]
CCC1(c2ccc(O)cc2)C(=O)N(c2ccc(C#N)c(C(F)(F)F)c2)C(=O)N1C (stereo not drawn) [Example 183, 4-[2,5-dioxo-4-ethyl-4-(4-hydroxyphenyl)-3-methylimidazolidin-1-yl]-2-trifluoromethylbenzonitrile]			2
C#CCN1C(=O)N(c2ccc(F)c(F)c2)C(=O)C1c1ccc(O)cc1 (stereo not drawn) [Example 67]		49	48.99
CN1C(=O)N(c2ccc(C#N)c(C(F)(F)F)c2)C(=O)C1(c1ccc(O)cc1)C(F)(F)F (stereo not drawn) [Example 179, 4-[2,5-dioxo-4-(4-hydroxyphenyl)-3-methyl-4-trifluoromethylimidazolidin-1-yl]-2-trifluoromethylbenzonitrile]	15		
CC1(c2ccc(O)cc2)C(=O)N(c2ccc(Cl)c(Cl)c2)C(=S)N1CCC#N (stereo not drawn) [Example 42, 3-[1-(3,4-dichlorophenyl)-4-(4-hydroxyphenyl)-4-methyl-5-oxo-2-thioxoimidazolidin-3-yl]-propionitrile]		8	4.9
N#CCCN1C(=O)N(c2cccc(C(F)(F)F)c2)C(=O)C1c1ccc(O)cc1 (stereo not drawn) [Example 128]		245	244.95
C=CCOCC1(c2ccc(OC)cc2)C(=O)N(c2ccc(Cl)c(Cl)c2)C(=O)N1C (stereo not drawn) [Example 171, 1-(3,4-dichlorophenyl)-4-(4-methoxyphenyl)-3-methyl-4-[(2-propenyloxy)methyl]-imidazolidine-2,5-dione]		600	
CCOC(=O)CCN1C(=O)N(c2ccc(F)c(C(F)(F)F)c2)C(=O)C1c1ccc(O)cc1 (stereo not drawn) [Example 78]		94.9	77.46
CCCN1C(=O)N(c2cccc(C(F)(F)F)c2)C(=O)C1c1ccc(O)cc1 (stereo not drawn) [Example 59]		69.3	69.28
COC(=O)CCN1C(=O)N(c2ccc(C#N)c(C(F)(F)F)c2)C(=O)C1(C)c1ccc(O)cc1 (stereo not drawn) [Example 234, 4-[2,5-dioxo-4-(4-hydroxyphenyl)-3-[2-(methoxycarbonyl)ethyl]-4-methylimidazolidin-1-yl]-2-trifluoromethylbenzonitrile]	15		
C=CCN1C(=O)N(c2cccc(C(F)(F)F)c2)C(=O)C1c1ccc(O)cc1 (stereo not drawn) [Example 64]		26.2	26.21
CCOCCCN1C(=O)N(c2ccc(Cl)c(Cl)c2)C(=O)C1c1ccc(O)cc1 (stereo not drawn) [Example 84]		24.5	17.32
CN(C)CCN1C(=O)N(c2ccc(F)c(F)c2)C(=O)C1c1ccc(O)cc1 (stereo not drawn) [Example 116]		2000	2000
O=C1C(c2ccc(O)cc2)N(Cc2ccc3c(c2)OCO3)C(=O)N1c1cccc(C(F)(F)F)c1 (stereo not drawn) [Example 104]		200	200
C=CCN1C(=S)N(c2ccc(Cl)c(Cl)c2)C(=O)C1(C)c1ccc(O)cc1 (stereo not drawn) [Example 40, 1-(3,4-dichlorophenyl)-4-(4-hydroxyphenyl)-4-methyl-3-(2-propenyl)-2-thioxoimidazolidin-5-one]		3.46	1.41
CN1C(=O)N(c2ccc(Cl)c(C(F)(F)F)c2)C(=O)C1c1ccc(O)cc1 (stereo not drawn) [Example 47]	48.99		
